Test results as given in PubChem BioAssay (NCI).
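Method: 48-hour compound exposure of cells in 96-well plates, five concentrations, linear interpolation of endpoints. TGI is the concentration that stops growth completely.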

Key:
Test in all cases: NCI-60 cell line screen, 48 h
[1] = tested on: UO-31 renal
[2] = tested on: OVCAR-3 ovarian
[3] = tested on: MOLT-4 leukemia
[4] = tested on: NCI-H23 lung
[5] = tested on: HT29 colon
[6] = tested on: MDA-MB-435
[7] = tested on: SK-MEL-2 melanoma
[8] = tested on: SF-295 CNS
[9] = tested on: RPMI-8226 leukemia
[10] = tested on: PC-3 prostate
[11] = tested on: UACC-62 melanoma
[12] = tested on: MCF7 breast
[13] = tested on: HCT-15 colon
[14] = tested on: RXF 393 renal
[15] = tested on: NCI-H226 lung
[16] = tested on: HOP-92 NSCLC
[17] = tested on: NCI-H460 lung
[18] = tested on: ACHN renal
[19] = tested on: KM12 colon
[20] = tested on: NCI-H522 lung

Compound	TGI [1]	TGI [2]	TGI [3]	TGI [4]	TGI [5]	TGI [6]	TGI [7]	TGI [8]	TGI [9]	TGI [10]	TGI [11]	TGI [12]	TGI [13]	TGI [14]	TGI [15]	TGI [16]	TGI [17]	TGI [18]	TGI [19]	TGI [20]
Cc1cccc(NC(=O)O/N=C(\Cl)C(C)C)c1	30.3 µM	11.4 µM	5.63 µM	29.1 µM	27.2 µM	31.7 µM	32.6 µM	32.1 µM	10.5 µM	30.9 µM	29.6 µM	28 µM	4.98 µM	26.9 µM	33.5 µM	3.14 µM	33.2 µM	3.94 µM	36 µM	2.99 µM
O=[N+]([O-])c1ccc(-n2nc3ccc4c(no[n+]4[O-])c3[n+]2[O-])c([N+](=O)[O-])c1	13.2 µM	6.39 µM	5.81 µM	5.43 µM	15.1 µM	7.39 µM	9.92 µM	11.9 µM	6.8 µM	20.7 µM	7.72 µM	3.98 µM	7.75 µM	5.37 µM	23.3 µM	8.02 µM	40.6 µM	5.7 µM	13.1 µM	4.03 µM
C=C1[C@H]2O[C@H]2[C@@H](OC(C)=O)[C@@]2(C)[C@@H](OC(C)=O)C[C@@H](OC(=O)CCC)[C@@](C)(O)[C@@H]2[C@@H](OC(C)=O)[C@]2(O)[C@@H](C)C(=O)O[C@H]2[C@H]1Cl	> 100 µM	> 100 µM	> 100 µM	> 100 µM	> 100 µM	> 100 µM	> 100 µM	> 100 µM	> 100 µM	> 100 µM	> 100 µM	> 100 µM	> 100 µM	> 100 µM	0.818 µM	> 100 µM	> 100 µM	> 100 µM	> 100 µM	> 100 µM
CC(C)(C)OC(=O)N1CC(CCl)c2ccc(O)cc21 (stereo not given)	6.17 µM	5.83 µM	8.13 µM	2.32 µM	11 µM	4.06 µM	3.2 µM	18.7 µM	7.96 µM	5.51 µM	4.56 µM	5.02 µM	10 µM	2.85 µM	4.53 µM	6.87 µM	10.2 µM	3.38 µM	4.6 µM	2.01 µM
Cc1ccc(S(=O)(=O)NC(=O)Nc2cccc(S(N)(=O)=O)c2)cc1	> 100 µM	> 100 µM	> 100 µM	> 100 µM	> 100 µM	> 100 µM	> 100 µM	> 100 µM	> 100 µM	> 100 µM	> 100 µM	> 100 µM	> 100 µM	> 100 µM	> 100 µM	> 100 µM	> 100 µM	> 100 µM	> 100 µM	> 100 µM
COC(=O)CN(CC(O)C(NC(C)=O)C(O)C=O)C(=O)OCc1ccccc1 (stereo not given)	> 100 µM	> 100 µM	> 100 µM	> 100 µM	> 100 µM	> 100 µM	> 100 µM	> 100 µM	> 100 µM	> 100 µM	> 100 µM	> 100 µM	> 31.6 µM	> 100 µM	> 100 µM	> 100 µM	> 100 µM	> 100 µM	> 100 µM	> 100 µM
O=C(O)c1nc2ccc(Cl)cc2[nH]c1=O	> 100 µM	> 100 µM	> 100 µM	> 100 µM	> 100 µM	> 100 µM	> 100 µM	> 100 µM	> 100 µM	> 100 µM	> 100 µM	> 100 µM	> 100 µM	> 100 µM	> 100 µM	> 100 µM	> 100 µM	> 100 µM	> 100 µM	> 100 µM
CN(CCNC(=O)c1c[nH]c2c1ccc1ccccc12)CCNC(=O)c1c[nH]c2c1ccc1ccccc12	2.67 µM	17.3 µM	4.3 µM	11.3 µM	3.5 µM	3.47 µM	3.91 µM	4.79 µM	15.6 µM	6.68 µM	3.46 µM	2.74 µM	3.83 µM	2.62 µM	40.5 µM	7.2 µM	4.13 µM	4.72 µM	3.29 µM	3.45 µM
COc1ccc2c(c1)c1c(n2CCN2CCOCC2)-c2cccc(OC)c2CC1	> 100 µM	> 100 µM	76.7 µM	> 100 µM	32.2 µM	> 100 µM	> 100 µM	> 100 µM	68.1 µM	> 100 µM	> 100 µM	77.3 µM	> 100 µM	> 100 µM	52.9 µM	> 100 µM	> 100 µM	> 100 µM	53.1 µM	89 µM
CNC(=O)N(CCC#N)CCN(C(=O)N(C)C)c1ccccc1	> 100 µM	> 100 µM	> 100 µM	> 100 µM	> 100 µM	> 100 µM	> 100 µM	> 100 µM	> 100 µM	> 100 µM	> 100 µM	> 100 µM	> 100 µM	> 100 µM	> 100 µM	> 100 µM	> 100 µM	> 100 µM	> 100 µM	> 100 µM
